For the experiment, the system named is IMR-90 human lung fibroblast viability counter screen. Nature of the experiment: cytotoxicity in human IMR-90 lung fibroblasts – cell-based, IC50, cytotoxicity control, dose response (AID 449725).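 Further: 48 hour compound exposure before the viability read.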

Activity calls are given as the source filed them. How the calls were made is not given here.

By IC50 is commonly meant the concentration needed to halve the response being measured. For the molecule `O=C(NCc1ccccc1)n1sc2ccccc2c1=O`, the IC50 is > 25 µM (inactive).
To `COc1ccc(C(=O)NC(CC(=O)O)c2cccc(Cl)c2)cc1` (configuration not stated) belongs > 25 µM (inactive); to `COc1ccc(C(=O)Nc2cc(Cl)ccc2C#N)cc1`, > 25 µM (inactive).
Next, `O=C(Nc1cc(Cl)ccc1C(=O)O)c1ccsc1`: > 25 µM (inactive); `O=c1c2ccc(F)cc2sn1-c1ccccc1`: 7.17 µM; `O=c1c2ccccc2sn1-c1ccccc1F`: 5.4 µM.
To `COc1cccc(C(=O)Nc2cc(Cl)ccc2C(=O)O)c1` belongs > 25 µM (inactive).
Turning to `COc1ccc(C(=O)Nc2cc(Cl)ccc2[N+](=O)[O-])cc1`, the IC50 was > 25 µM (inactive).
Next, `O=C(CCn1sc2ccccc2c1=O)Nc1ccccc1`: 9.92 µM; `COc1ccc(N2C(=O)c3ccc(Cl)cc3C2=O)cc1`: > 25 µM (inactive); `O=C1CCN(C(=O)Nc2cc(Cl)ccc2C(=O)O)CC1`: > 25 µM (inactive).
To `CCC(C)(C)c1ccc(C(=O)Nc2cc(Cl)ccc2C(=O)O)cc1` belongs > 25 µM (inactive); to `O=c1c(O)c(-c2ccc(O)c(O)c2)oc2cc(O)cc(O)c12`, > 25 µM (inactive).
Next, `COc1ccc(-c2cc3ccccc3[nH]2)cc1`: > 25 µM (inactive); `COc1ccc(NC(=O)Nc2ccccc2C(=O)O)cc1`: > 25 µM (inactive).
With `COc1ccc(C(=O)Nc2cc(Cl)ccc2C(=O)O)cc1`, the IC50 was > 25 µM (inactive).
Next, `O=c1c2cc(F)ccc2sn1-c1ccc(Cl)cc1`: > 25 µM (inactive); `O=C(Cn1sc2ccccc2c1=O)Nc1ccccc1C(F)(F)F`: > 25 µM (inactive); `O=C(Nc1cc(Cl)ccc1C(=O)O)c1ccoc1`: > 25 µM (inactive).
Next, `O=C1c2cc(Br)ccc2S(=O)N1c1ccccc1` (configuration not stated): > 25 µM (inactive); `COc1ccc2c(=O)n(-c3ccccc3)sc2c1`: > 25 µM (inactive); `COc1ccc(NC(=O)Cn2sc3ccccc3c2=O)cc1`: 6.49 µM.
Next, `O=c1c2cc([N+](=O)[O-])ccc2sn1-c1ccccc1`: 10.2 µM; `O=C(Nc1cc(Cl)ccc1C(=O)O)c1cocn1`: > 25 µM (inactive); `CCCc1ccc(C(=O)Nc2cc(Cl)ccc2C(=O)O)cc1`: > 25 µM (inactive).
For `COc1ccc(C(=O)Nc2ccccc2C(=O)O)cc1Cl`, the IC50 was > 25 µM (inactive).
Next, `COc1ccc(C(=O)Nc2cc(C(=O)O)ccc2Cl)cc1`: > 25 µM (inactive); `CC(C)Cc1ccc(C(=O)Nc2cc(Cl)ccc2C(=O)O)cc1`: > 25 µM (inactive); `COc1ccc(C(=O)Nc2cc(-c3ccccc3)ccc2C(=O)O)cc1`: > 25 µM (inactive).
To `O=c1c2ccccc2sn1-c1cccc(Cl)c1` belongs > 25 µM (inactive); to `N#Cc1ccc2sn(-c3ccccc3)c(=O)c2c1`, > 25 µM (inactive); to `CC(C)(C)c1ccc(C(=O)Nc2cc(Br)ccc2C(=O)O)cc1`, > 25 µM (inactive).
For `Cc1ccccc1-n1sc2cc(F)ccc2c1=O`, the IC50 is 5.6 µM.
Next, `COc1ccc(C(=O)Nc2cc(C)ccc2C(=O)O)cc1`: > 25 µM (inactive); `O=c1s[nH]c2ccccc12`: > 25 µM (inactive).
With `COc1ccc(C(=O)O)c(NC(=O)c2ccc(Cl)cc2)c1`, the IC50 is > 25 µM (inactive).
Turning to `CCc1ccc(C(=O)Nc2cc(Cl)ccc2C(=O)OC)cc1`, the IC50 was > 25 µM (inactive).
Regarding `C=C(C)c1ccc(C(=O)Nc2cc(Cl)ccc2C(=O)O)cc1`, the IC50 was > 25 µM (inactive).
To `O=C(Cn1sc2ccccc2c1=O)Nc1ccc(C(F)(F)F)cc1` belongs 13.9 µM; to `O=C(Nc1ccccc1)n1sc2ccccc2c1=O`, 1.66 µM.
In the case of `Cc1ccc(NC(=O)Cn2sc3ccccc3c2=O)cc1`, the IC50 is 11 µM.
Turning to `O=c1c2cc(Br)ccc2sn1-c1ccccc1`, the IC50 was > 25 µM (inactive).
Next, `CC(C)c1ccc(C(=O)Nc2cc(Cl)ccc2C(=O)O)cc1`: > 25 µM (inactive); `COc1ccc2sn(-c3ccccc3)c(=O)c2c1`: > 25 µM (inactive).
To `CC(C)(C)c1ccc(C(=O)N2CCC(=O)c3ccc(Cl)cc32)cc1` belongs > 25 µM (inactive).
To `CCOC(=O)Cn1sc2ccccc2c1=O` belongs 6.35 µM; to `O=C1c2ccccc2S(=O)N1c1ccc(Cl)cc1` (configuration not stated), > 25 µM (inactive).
Regarding `COc1cc(C(=O)Nc2cc(Cl)ccc2C(=O)O)cc(OC)c1OC`, the IC50 is > 25 µM (inactive).
As for `CCc1ccc(C(=O)Nc2cc(Cl)ccc2C(=O)O)cc1`, the IC50 is > 25 µM (inactive).
Next, `COc1ccc(C(=O)NCC(=O)O)cc1`: > 25 µM (inactive).
In the case of `CCOC(=O)c1ccncc1NC(=O)c1ccc(OC)cc1`, the IC50 is > 25 µM (inactive).
To `COc1ccc(C(=O)Nc2cc(Cl)c(Br)cc2C(=O)O)cc1` belongs > 25 µM (inactive).
To `COC(=O)c1ccc(Cl)cc1NC(=O)c1ccc(OC)cc1` belongs > 25 µM (inactive); to `O=c1c2ccccc2sn1-c1ccc(Cl)cc1Cl`, > 25 µM (inactive).
As for `COc1ccc(NC(=O)c2ccc(Cl)cc2C(=O)O)cc1`, the IC50 is > 25 µM (inactive).
To `O=C(O)c1ccc(Cl)cc1NC(=O)N1CCOCC1` belongs > 25 µM (inactive).
Next, `N#Cc1ccccc1NC(=O)Cn1sc2ccccc2c1=O`: > 25 µM (inactive).
Next, `Cc1ccccc1N1Cc2ccccc2C1=O`: > 25 µM (inactive); `O=c1cc(-c2ccccc2)sn1-c1ccccc1`: 13.4 µM.
Turning to `COc1cccc(NC(=O)Cn2sc3ccccc3c2=O)c1`, the IC50 was 8.77 µM.
Next, `O=c1c2ccccc2sn1-c1ccccc1Cl`: 4.81 µM; `O=C(Nc1cc(Cl)ccc1C(=O)O)c1ccncc1`: > 25 µM (inactive).
Next, `Cn1sc(=O)c2ccccc21`: 18 µM.
`N#Cc1ccc(Oc2ccc3c(c2)B(O)OC3)cc1`: the IC50 is > 25 µM (inactive).
As to `Cc1cccc(C(=O)Nc2cc(Cl)ccc2C(=O)O)c1`, the IC50 is > 25 µM (inactive).
Next, `O=C(Nc1cc(Cl)ccc1C(=O)O)c1ccccc1`: > 25 µM (inactive); `O=c1c2cc(F)ccc2sn1-c1ccccc1Cl`: 6.16 µM; `COC(=O)c1ccc(Cl)cc1NC(=O)c1ccccc1OC`: > 25 µM (inactive).
Next, `Cc1ccccc1NC(=O)Cn1sc2ccccc2c1=O`: 7.37 µM; `COc1ccc(C(=O)Nc2cc(OC)ccc2C(=O)O)cc1`: > 25 µM (inactive).
As to `O=C(Nc1ccccc1)c1cc(F)ccc1S`, the IC50 was > 25 µM (inactive).
To `O=C(Cn1sc2ccccc2c1=O)Nc1cccc(C(F)(F)F)c1` belongs > 25 µM (inactive); to `COc1ccc(-n2sc3ccccc3c2=O)cc1`, 5.54 µM; to `CN(C)c1ccc(C(=O)Nc2cc(Cl)ccc2C(=O)O)cc1`, > 25 µM (inactive).
Next, `CCCCCCC(=O)Nc1cc(Cl)ccc1C(=O)O`: > 25 µM (inactive).
Next, `O=c1c(Br)csn1-c1ccc(Br)cc1`: > 25 µM (inactive); `O=c1c2ccccc2on1-c1ccccc1`: > 25 µM (inactive); `O=C(Cn1sc2ccccc2c1=O)Nc1ccccc1Br`: > 25 µM (inactive).
With `COc1ccc(S(=O)(=O)Nc2cc(Cl)ccc2C(=O)O)cc1`, the IC50 was > 25 µM (inactive).
Next, `O=C(O)c1ccccc1NC(=O)c1ccccc1C(=O)O`: > 25 µM (inactive).
Next, `COc1ccc(C(=O)N(C)c2cc(Cl)ccc2C(=O)O)cc1`: > 25 µM (inactive); `CC(C)(C)c1ccc(C(=O)Nc2cc(Cl)c(Br)cc2C(=O)O)cc1`: > 25 µM (inactive).
Next, `Cc1ccc(C(=O)Nc2cc(Cl)ccc2C(=O)O)cc1C`: > 25 µM (inactive).
`CC(C(=O)Nc1ccccc1)n1sc2ccccc2c1=O` (configuration not stated): the half-maximal inhibitory concentration (IC50) was 16.3 µM.
Next, `O=C(Nc1cc(Cl)ccc1C(=O)O)c1ccc(C(F)(F)F)cc1`: > 25 µM (inactive).
Regarding `O=C(Cn1sc2ccccc2c1=O)N1CCOCC1`, the IC50 is > 25 µM (inactive).
Next, `COc1ccc(C(=O)NC(CC(=O)O)c2ccccc2)cc1` (configuration not stated): > 25 µM (inactive).
To `COc1ccc(C(=O)Nc2cc(Cl)ccc2C(N)=O)cc1` belongs > 25 µM (inactive).
Regarding `O=c1c2cc(C(F)(F)F)ccc2sn1-c1ccccc1`, the half-maximal inhibitory concentration (IC50) was 12 µM.
Next, `O=C(Nc1cc(Cl)ccc1C(=O)O)c1ccc(OC(F)(F)F)cc1`: > 25 µM (inactive); `COC(=O)c1ccc(Cl)cc1NS(=O)(=O)c1ccc(OC)cc1`: 13.8 µM.
Next, `O=C(Nc1cc(Cl)ccc1C(=O)O)c1ccc2c(c1)CCCC2`: > 25 µM (inactive).
To `O=C(Cn1sc2ccccc2c1=O)Nc1ccccc1Cl` belongs > 25 µM (inactive); to `COc1cccc(CC(=O)Nc2cc(Cl)ccc2C(=O)O)c1`, > 25 µM (inactive); to `O=c1c2cc(N3CCOCC3)ccc2sn1-c1ccccc1`, 20.9 µM.
On to `COc1ccc(C(=O)Nc2cc(Cl)ccc2-c2noc(=O)[nH]2)cc1`, for which the IC50 was > 25 µM (inactive).
Next, `O=c1c2ccc([N+](=O)[O-])cc2sn1-c1ccccc1`: 20.7 µM.
To `O=C(Cn1sc2ccccc2c1=O)Nc1cccc(F)c1` belongs > 25 µM (inactive); to `COc1ccc(C(=O)Nc2cc(F)ccc2C(=O)O)cc1`, > 25 µM (inactive); to `CC(C)(C)c1ccc(C(=O)Nc2cc(Cl)ccc2-c2nn[nH]n2)cc1`, > 25 µM (inactive).
Regarding `COc1ccc(C(=O)Nc2cccc(Cl)c2)cc1`, the IC50 was > 25 µM (inactive).
With `CN(Cc1ccccc1)C(=O)Cn1sc2ccccc2c1=O`, the concentration for half-maximal inhibition (IC50) was 15.2 µM.

The values are drawn from PubChem BioAssay AID449725 (University of Pittsburgh Molecular Library Screening Center, 2010).
